pEC50: −log10 of the molar value.
Key:
DBA/201a mice = test: Porsolt's forced swim test after intrahippocampal P2X7R antagonists; type: in vivo, mouse; conditions: 100 nM KN-62 or 10 μM oATP, 1 μl each side, dentate gyrus, 24 hours after injection
Source text: In the present example, the P2X7R antagonists were directly injected into the dentate gyrus region of the hippocampus. Briefly, three months old male mice were bilaterally implanted with guide cannulae (23 gauge, length 8 mm) by means of a stereotactic instrument (David Kopf Instruments). The coordinates, in relation to bregma, were −1.5 mm posterior, ±1.0 mm lateral, and −0.8 mm ventral. Mice were allowed to recover for 10 to 13 days after surgery. Following this recovery period, mice were injected with 1 μl vehicle solution (0.01% DMSO, Sigma), or 100 nM KN-62 (Sigma, prepared in 0.01% DMSO), or 10 μM oATP (Sigma, prepared in PBS) in each side of the brain over a period of 60 seconds. All injections were performed using a 9 mm-31 gauge needle inserted into the guide cannulae and connected via tubing to a 10 μl Hamilton syringe.
The behaviour of individual mice was assessed using the Porsolt's forced swim test 24 hours after injection of vehicle solution, KN-62, or oATP. A pre-exposure of 5 minutes to the test was performed 15-17 minutes after administration of vehicle, KN-62, or oATP. A description of the Porsolt's forced swim test is given in example 9. […] Observed results were verified statistically using one-way MANOVA test.

P2X7R [1] = biological target: T1, P2X7R (Homo sapiens, UniProt Q99572); test: Calcium entry (Fluo-4 AM) in HT-22 cells overexpressing human P2X7R; type: cell-based; design: expressed in transfected cells; conditions: 20 μM BzATP or 50 μM tenidap
T1 sequence (Q99572 1-595): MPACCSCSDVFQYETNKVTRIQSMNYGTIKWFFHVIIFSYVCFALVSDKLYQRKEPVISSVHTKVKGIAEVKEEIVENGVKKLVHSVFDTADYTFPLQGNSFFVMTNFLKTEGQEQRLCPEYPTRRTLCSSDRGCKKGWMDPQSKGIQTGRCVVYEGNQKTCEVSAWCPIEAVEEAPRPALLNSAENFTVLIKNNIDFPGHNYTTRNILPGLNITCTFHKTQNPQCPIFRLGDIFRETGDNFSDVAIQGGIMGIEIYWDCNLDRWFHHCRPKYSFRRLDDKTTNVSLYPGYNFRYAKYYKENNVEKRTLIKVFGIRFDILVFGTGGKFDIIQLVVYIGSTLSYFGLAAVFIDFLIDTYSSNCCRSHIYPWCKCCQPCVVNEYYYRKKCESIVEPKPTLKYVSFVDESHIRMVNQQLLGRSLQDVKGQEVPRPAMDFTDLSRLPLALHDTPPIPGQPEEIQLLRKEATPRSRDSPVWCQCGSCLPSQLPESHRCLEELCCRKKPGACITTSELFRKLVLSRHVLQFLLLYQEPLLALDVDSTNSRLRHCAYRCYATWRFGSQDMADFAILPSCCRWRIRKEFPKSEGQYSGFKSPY
Source text: Yet another method for identifying P2X7R agonists was devised by generating a immortalised mouse cell line that overexpresses the human P2X7R gene under the control of the human cytomegalovirus (CMV) early promoter/enhancer region. The human P2X7R cDNA was inserted into the pcDNA3.1 vector (Invitrogen) and transfected into the mouse hippocampal cell line HT-22 using Lipofectamine (Invitrogen) according to the manufacturer's specifications. One day after transfection, culture medium containing 500 μg/ml G418 was added to the cells. Resistant clones were separately isolated and cultured 14 days after applying the selection medium.
The agonistic activity of a compound was evaluated by measuring calcium entry in the cells that overexpress the human P2X7R. Cells were cultured in 96 well plates and incubated at 37° C. with 5% CO2 DMEM with 10% foetal calf serum (Gibco) until they reached confluence. Cells were then loaded for one hour with 10 μM of Fluo-4 AM (Molecular Probes). Fluo-4 AM is a fluorescent dye that binds to intracellular calcium. […] Agonist activity was detected by measuring an increase in calcium influx which results in increased binding to Fluo-4 AM and increased fluorescence. Changes in fluorescence signal are measured using a Fluostar Optima plate reader (BMG biotech). […] Thus, both compound stimulated the activity of P2X7R which results in an influx of ions into the cells.

mice [2] = test: Porsolt's forced swim test after long-term paroxetine; type: in vivo, mouse; conditions: paroxetine 10 mg/kg twice per day by gavage, 28 days, male mice
Experimental: Further validation of role of P2X7R in affective disorders was performed by examining its expression pattern in response to stress and treatment with antidepressant drugs. […] In parallel, a control group of mice was given vehicle solution (i.e. without paroxetine) using the same treatment regiment while a second control group of mice was left undisturbed and stress-free (i.e. untreated) during the same period of the experiments. At the end of the long-term treatment, part of the mice of each experimental group were tested in the dark/light box (test of anxiety behaviour) and in the Porsolt's forced swim test (test of depressive-like behaviour) to confirm the effectiveness of the treatment (FIG. 5). […] The other part of the experimental groups (i.e. mice without test experience) were decapitated, brains rapidly removed and frozen at −80° C. until usage.

P2X7R [3] = biological target: T2, P2X7R (Rattus norvegicus, UniProt Q64663); conditions: concentrations of 10 to 300 μM; cited from earlier work
T2 sequence (Q64663 1-595): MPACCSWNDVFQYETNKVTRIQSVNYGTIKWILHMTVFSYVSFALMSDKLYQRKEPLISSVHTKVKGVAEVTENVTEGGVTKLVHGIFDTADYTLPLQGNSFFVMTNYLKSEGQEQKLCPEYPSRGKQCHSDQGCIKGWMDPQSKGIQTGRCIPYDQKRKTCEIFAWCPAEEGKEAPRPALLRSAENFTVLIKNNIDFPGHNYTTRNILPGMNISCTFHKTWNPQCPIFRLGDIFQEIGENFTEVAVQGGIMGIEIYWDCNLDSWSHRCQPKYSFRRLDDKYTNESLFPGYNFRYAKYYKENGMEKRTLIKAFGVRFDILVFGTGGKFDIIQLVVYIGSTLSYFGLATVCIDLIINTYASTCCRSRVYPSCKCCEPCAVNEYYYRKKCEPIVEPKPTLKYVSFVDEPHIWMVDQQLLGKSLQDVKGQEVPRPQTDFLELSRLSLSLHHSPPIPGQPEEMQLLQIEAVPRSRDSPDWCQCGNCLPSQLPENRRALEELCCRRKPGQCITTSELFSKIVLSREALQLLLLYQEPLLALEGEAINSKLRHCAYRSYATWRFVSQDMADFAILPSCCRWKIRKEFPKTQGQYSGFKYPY

P2X7R [4] = conditions: cited from earlier work
P2X7R [5] = biological target: T1, P2X7R; conditions: dose response curve, Y-axis ion current; cited from earlier work
mice [6] = test: Porsolt's forced swim test after intrahippocampal siRNA; type: in vivo, mouse; conditions: 0.1 nmol/μl, 1 μl per side, dentate gyrus, 24 hours and 48 hours after infusion
Source text: According to the observed expression pattern of P2X7R in the hippocampus (FIGS. 9, 10, and 11) and the known involvement of the hippocampus in depression, the dentate gyrus (hippocampus) was selected as target region for siRNA application. Male, naive mice were bilaterally implanted with a guide cannulae (23 gauge, length 8 mm) by means of a stereotactic instrument. The coordinates, in relation to bregma, were −2.0 mm posterior, ±1.0 mm lateral, and −1.0 mm ventral. Following a recovery period of 5 days, the mice were divided into three experimental groups: vehicle (veh), control double stranded RNA (control), and P2X7R specific double stranded siRNA (siRNA). Sequences used for P2X7R siRNA are 5′-[…]-3′ and 5′-[…]-3′. Both sequences and were annealed and injected together as a double stranded RNA. On day 6 after surgery, mice were slightly anaesthetized with Isofluran and injections of siRNA were carried out. […]
The effects of P2X7R inhibition on depressive-like behaviour was assessed 24 hours and 48 hours after infusion of siRNA, control or vehicle according to the standard test paradigm, the Porsolt's forced swim test (Porsolt et al., Arch. Int. Pharmacodym. 229 (1977), 327-336; Porsolt, Rev. Neurosci. 11 (2000), 53-58). […] Compared to vehicle application, no influence of control double stranded RNA (5′-[…]-3′) on floating behaviour (passive stress coping) was detected. […]

P2X7R [7] = test: P2X7R protein expression by immunohistochemistry after siRNA injection; type: in vivo, mouse
Source text: At the end of the experiment, the mice were sacrificed and the brains were examined to confirm the location and efficiency of the siRNA injections. For this purpose the brains were cut into sections and the slides were stained by immunohistochemistry using the above mentioned protocols. Brains from mice injected with the specific double stranded siRNA, with control double stranded RNA and with vehicle were examined in parallel. Under these conditions, the specific siRNA directed against P2X7R injected near the dentate gyrus induced on average an 80% inhibition of P2X7R protein expression as compared to the samples from mice injected with vehicle or with control double stranded RNA. […] This inhibition produced behavioural changes indicating a causative role for P2X7R in affective disorders.

CN([C@@H](Cc1ccc(OS(=O)(=O)c2cccc3cnccc23)cc1)C(=O)N1CCN(c2ccccc2)CC1)S(=O)(=O)c1cccc2cnccc12 [KN-62, 1-(N,O-bis[5-isoquinolinesulphonyl]-N-methyl-L-tyrosyl)-4-phenylpiperazine]
active escape attempts (time, frequency, latency of struggling) (DBA/201a mice): no changes | passive behaviour (time, frequency, latency of floating) (DBA/201a mice): no changes

NC(=O)N1C(=O)/C(=C(\O)c2cccs2)c2cc(Cl)ccc21 [tenidap, 5-chloro-2,3-dihydro-2-oxo-3-(2-thienylcarbonyl)-indole-1-carboxamide]
fluorescence intensity (calcium influx, Fluo-4 AM) (P2X7R [1]): rapid increase in fluorescence intensity

Fc1ccc([C@@H]2CCNC[C@H]2COc2ccc3c(c2)OCO3)cc1 [paroxetine]
passive stress coping behaviour (floating) in the forced swim test (mice [2]): decreased

CC(C)NC[C@@H](O)COc1cccc2ccccc12 [D-propanolol]
opening of the cation channel activity of P2X7R (P2X7R [3]): without affecting the opening of the cation channel activity of P2X7R | pore-forming activity of P2X7R (P2X7R [3]): inhibit the pore-forming activity of P2X7R

Nc1ncnc2c1ncn2[C@@H]1O[C@H](COP(=O)(O)OP(=O)(O)OP(=O)(O)O)[C@@H](O)[C@H]1O [ATP]
levels of ATP required to achieve activation (P2X7R [4]): > 1 mM | pEC50 (P2X7R [5]): 3.52

CC(CCc1ccccc1)NCC(O)c1ccc(O)c(C(N)=O)c1 (stereo not shown) [labetolol]
opening of the cation channel activity of P2X7R (P2X7R [3]): without affecting the opening of the cation channel activity of P2X7R | pore-forming activity of P2X7R (P2X7R [3]): inhibit the pore-forming activity of P2X7R

CC(C)NCC(O)COc1cccc2ccccc12 (racemic) [DL-propanolol]
opening of the cation channel activity of P2X7R (P2X7R [3]): without affecting the opening of the cation channel activity of P2X7R | pore-forming activity of P2X7R (P2X7R [3]): inhibit the pore-forming activity of P2X7R

P2X7R specific siRNA: double stranded siRNA, 5′-GUGGGUCUUGCACAUGAUCTT-3′ annealed with 5′-GAUCAUGUGCAAGACCCACTT-3′ (chemistry not given here)
passive (floating) behaviour in the forced swim test (mice [6]): significant increase in passive behaviour | passive (floating) behaviour in the forced swim test (mice [6]; listed as siRNA targeting P2X7R): increased | inhibition of P2X7R protein expression (P2X7R [7]; injected near the dentate gyrus, compared to vehicle or control double stranded RNA): 80% | local inflammation or infiltration at the hippocampus (P2X7R [7]; intrahippocampal injection): did not produce any sign of local inflammation or infiltration

From US20060110385A1, “Means and methods for diagnosing and treating affective disorders” (Affectis Pharmaceuticals AG, priority 2003, published 2006)
